Measurements reported in BigSolDB 2.1.

CC(=O)Oc1ccccc1C(=O)O
Settings | solubility (mole fraction)
in ethanol, 274.95 K | 0.0246
in ethanol, 292.45 K | 0.0487
in isopropanol, 274.9 K | 0.0163
in isopropanol, 281.7 K | 0.0223
in isopropanol, 283.75 K | 0.0245
in n-octanol, 272.14 K | 0.01
in n-octanol, 281.45 K | 0.0152
in n-octanol, 291.53 K | 0.0235
in n-octanol, 307.12 K | 0.0434

CN=C(NC#N)NCCSCc1nc[nH]c1C
solubility (mole fraction)
Settings | 281.04 K | 285.25 K | 289.65 K | 292.46 K | 296.7 K | 297.26 K | 306.76 K | 309.1 K | 311.34 K
in ethanol | – | – | – | – | – | 0.005 | 0.0081 | 0.0091 | 0.0101
in methanol | 0.0082 | 0.0098 | 0.0119 | 0.0138 | 0.0166 | – | – | – | –

CC(=O)Nc1ccc(O)cc1
Settings | solubility (mole fraction)
in ethanol, 284.49 K | 0.0444
in ethanol, 288.38 K | 0.0471
in ethanol, 293.54 K | 0.0508
in ethanol, 295.69 K | 0.0539
in isopropanol, 273.5 K | 0.0256
in isopropanol, 289.99 K | 0.0372
in isopropanol, 302.5 K | 0.0473
in n-octanol, 262.78 K | 0.0057
in n-octanol, 275.42 K | 0.0082
in n-octanol, 285.72 K | 0.0104
in n-octanol, 301.15 K | 0.0151
